Results: ChEMBL document CHEMBL1201862, “PubChem BioAssay data set” (2004)
Calls of active or inactive are those of the source.

Tests used:
[1] = NIH-3T3 fibroblast cytotoxicity, dose response, cytotoxicity control, cell-based, fluorescence, Alamar Blue, secondary assay (AID 2327); format: functional;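 note: NIH-3T3 mouse fibroblasts cultured with fluconazole at 8 µg/mL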
cells [2] = format: functional, cell-based
[3] = fluconazole-exposed Candida albicans growth modulators – fluorescence, retest, confirmation (AID 2467); format: functional, cell-based
cells [4] = format: functional, cell-based; remark: listed apart in the source
[5] = biological target: T1, Serine/threonine-protein phosphatase (Candida dubliniensis (strain CD36 / CBS 7987 / NCPF 3949 / NRRLY-17841) (Yeast), UniProt B9W6M3); test: blockers of CaCl2-induced CDRE-lacZ signaling – S. cerevisiae, luminescence, secondary, dose response (AID 2388); format: functional, cell-based;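 note: yeast reporter cells carrying a calcineurin-responsive lacZ construct stimulated with calcium chloride; luminescent beta-galactosidase reporter signal in whole cells rather than isolated phosphatase activity; potency for inhibition where a drop in reporter signal means calcineurin blockade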
T1 sequence (B9W6M3 whole entry): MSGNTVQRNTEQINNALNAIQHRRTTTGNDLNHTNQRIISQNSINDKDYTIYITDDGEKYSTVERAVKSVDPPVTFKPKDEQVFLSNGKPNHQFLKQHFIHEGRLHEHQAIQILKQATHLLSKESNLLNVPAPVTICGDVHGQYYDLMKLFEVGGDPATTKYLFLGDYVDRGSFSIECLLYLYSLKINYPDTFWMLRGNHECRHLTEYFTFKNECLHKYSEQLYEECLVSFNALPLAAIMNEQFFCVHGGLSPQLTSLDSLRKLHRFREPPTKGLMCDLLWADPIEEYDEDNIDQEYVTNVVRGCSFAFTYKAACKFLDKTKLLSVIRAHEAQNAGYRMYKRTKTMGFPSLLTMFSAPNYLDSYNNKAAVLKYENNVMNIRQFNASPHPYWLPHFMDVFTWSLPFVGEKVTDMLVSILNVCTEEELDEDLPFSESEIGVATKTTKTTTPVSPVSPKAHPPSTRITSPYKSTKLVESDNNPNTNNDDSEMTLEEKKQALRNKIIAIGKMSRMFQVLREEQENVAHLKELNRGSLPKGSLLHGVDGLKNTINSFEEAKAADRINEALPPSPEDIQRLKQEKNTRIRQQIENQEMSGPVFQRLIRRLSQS

[6] = THP-1 cell cytotoxicity, dose response, cytotoxicity control for non-replicating M. tuberculosis project (AID 489025); format: functional
[7] = HepG2 cell cytotoxicity, dose response, cytotoxicity control for non-replicating M. tuberculosis project (AID 489018); format: functional; conditions: Mycobacterium tuberculosis
[8] = Vero E6 cell cytotoxicity, dose response, cytotoxicity control for non-replicating M. tuberculosis project, secondary assay (AID 492998); format: functional, VeroE6; conditions: Vero C1008
INS1 = test: INS-1E survival protection against cytokine death – cell-based, luminescence, retest, dose response (AID 449756); format: functional; conditions: Rattus norvegicus;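 note: cell death triggered by IL-1 beta plus TNF-alpha plus IFN-gamma mixture; protective hits raise ATP signal compared with cytokine alone wells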
[9] = biological target: ATP-dependent molecular chaperone HSP82 (Candida albicans (strain WO-1) (Yeast), UniProt C4YTQ8); test: steroid-induced GRE reporter decrease in yeast – S. cerevisiae, luminescence, Hsp90 inhibitor project, dose response (AID 2400); format: functional, cell-based;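 note: beta-galactosidase luminescence from glucocorticoid response element reporter as proxy for Hsp90 function; inhibitor potency where signal loss means Hsp90 inhibition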
CHO-K1 = test: (§1) Counterscreen for antagonists of the orexin 1 receptor (OX1R; HCRTR1): Homogeneous time resolved fluorescence (HTRF)-based cell-based dose response assay to identify antagonists of the parental CHO-K1 cell line. [Related pubchem assays (depositor defined):AID434989, AID435008, AID463079, AID485270, AID492963, AID492964, AID492965, AID493232, AID504699, AID504701]; format: functional; conditions: Cricetulus griseus
[10] = as §1, with “Fluorescence-based” for “Homogeneous time resolved fluorescence (HTRF)-based”, “cell-based high throughput” for “cell-based”, “CHO” for “CHO-K1”; format: functional
[11] = biological target: T2, Orexin/Hypocretin receptor type 1 (Homo sapiens, UniProt O43613); test: Homogeneous Time Resolved Fluorescence (HTRF)-based cell-based high throughput dose response assay for antagonists of the orexin 1 receptor (OX1R; HCRTR1). [Related pubchem assays (depositor defined):AID434989, AID435008, AID463079, AID485270, AID492963, AID492964, AID492965, AID493232, AID504717, AID504718]; format: functional
T2 sequence (O43613 whole entry): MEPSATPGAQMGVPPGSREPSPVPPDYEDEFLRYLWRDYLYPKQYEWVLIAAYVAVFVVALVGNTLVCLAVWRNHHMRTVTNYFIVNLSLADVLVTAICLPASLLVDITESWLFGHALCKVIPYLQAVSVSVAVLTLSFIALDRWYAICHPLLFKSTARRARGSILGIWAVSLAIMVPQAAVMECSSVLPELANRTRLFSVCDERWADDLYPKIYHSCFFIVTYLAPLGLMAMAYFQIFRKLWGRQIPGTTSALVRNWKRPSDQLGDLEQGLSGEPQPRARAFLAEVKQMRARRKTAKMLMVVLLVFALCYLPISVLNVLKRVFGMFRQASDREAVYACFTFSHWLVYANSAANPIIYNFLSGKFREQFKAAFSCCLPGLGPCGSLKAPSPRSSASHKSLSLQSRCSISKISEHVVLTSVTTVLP

[12] = biological target: T2, Orexin/Hypocretin receptor type 1; test: Fluorescence-based cell-based high throughput dose response assay for antagonists of the orexin 1 receptor (OX1R; HCRTR1). [Related pubchem assays (depositor defined):AID434989, AID435008, AID463079, AID485270, AID492963, AID492964, AID492965, AID493232, AID504717, AID504718]; format: functional
Orexin receptor type 2 [13] = biological target: T3, Orexin receptor type 2 (Homo sapiens, UniProt O43614); test: Counterscreen assay for antagonists of the orexin 1 receptor (OX1R; HCRTR1): Fluorescence-based cell-based dose response assay for antagonists of the orexin 2 receptor (OX2R; HCRTR2), run by assay provider.; format: functional
T3 sequence (O43614 whole entry): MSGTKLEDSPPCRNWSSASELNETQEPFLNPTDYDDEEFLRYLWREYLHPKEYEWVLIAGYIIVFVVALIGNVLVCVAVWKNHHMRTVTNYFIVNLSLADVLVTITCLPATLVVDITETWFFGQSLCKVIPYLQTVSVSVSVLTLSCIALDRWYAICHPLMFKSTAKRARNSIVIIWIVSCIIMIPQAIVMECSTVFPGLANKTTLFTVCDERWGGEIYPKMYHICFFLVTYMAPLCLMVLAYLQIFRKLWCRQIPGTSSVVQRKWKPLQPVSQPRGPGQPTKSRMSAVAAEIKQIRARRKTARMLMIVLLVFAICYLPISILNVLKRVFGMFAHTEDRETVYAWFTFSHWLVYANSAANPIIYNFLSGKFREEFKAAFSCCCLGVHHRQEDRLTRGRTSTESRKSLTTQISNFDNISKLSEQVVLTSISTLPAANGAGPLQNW

Orexin receptor type 2 [14] = biological target: T3, Orexin receptor type 2; test: Counterscreen assay for antagonists of the orexin 1 receptor (OX1R; HCRTR1): Homogeneous Time Resolved Fluorescence (HTRF)-based cell-based dose response assay for antagonists of the orexin 2 receptor (OX2R; HCRTR2), run by assay provider.; format: functional
HEK293 [15] = test: inhibition of NOD1-driven NF-kB reporter – cell-based, luminescence, uHTS, primary screen (AID 1578); format: functional; conditions: Homo sapiens
HEK293 [16] = test: cells; format: functional, cell-based; conditions: Homo sapiens
[17] = biological target: T4, Heat shock factor protein 1 (Mus musculus, UniProt P38532); test: decrease of HSF1-responsive luciferase luminescence – cell-based, NIH3T3, dose retest, confirmation (AID 2382); format: functional;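 note: NIH3T3 fibroblasts with HSF1-driven luciferase reporter stressed by proteasome inhibitor MG132; luminescence from HSF1-driven luciferase expression after 8 hours of MG132 stress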
T4 sequence (P38532 whole entry): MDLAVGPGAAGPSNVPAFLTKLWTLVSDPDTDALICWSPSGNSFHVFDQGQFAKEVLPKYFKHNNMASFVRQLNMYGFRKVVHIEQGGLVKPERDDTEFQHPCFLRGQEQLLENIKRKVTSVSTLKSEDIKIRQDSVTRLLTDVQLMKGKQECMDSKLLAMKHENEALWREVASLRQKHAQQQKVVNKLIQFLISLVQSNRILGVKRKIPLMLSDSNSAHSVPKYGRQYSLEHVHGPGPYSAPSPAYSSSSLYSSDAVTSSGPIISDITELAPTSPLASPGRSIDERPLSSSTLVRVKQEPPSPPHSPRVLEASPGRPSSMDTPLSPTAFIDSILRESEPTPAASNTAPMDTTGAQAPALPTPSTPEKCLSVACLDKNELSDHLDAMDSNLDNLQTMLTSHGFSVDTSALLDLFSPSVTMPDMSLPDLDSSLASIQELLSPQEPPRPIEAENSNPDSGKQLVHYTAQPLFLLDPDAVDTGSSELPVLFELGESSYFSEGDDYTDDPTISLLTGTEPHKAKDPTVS

HEK293 [18] = test: cells; format: functional, cell-based; conditions: Homo sapiens; remark: listed apart in the source
[19] = biological target: Nucleotide-binding oligomerization domain-containing protein 2 (Homo sapiens, UniProt Q9HC29); test: inhibition of NOD2-driven NF-kB reporter – cell-based, luminescence, uHTS, HEK293 (AID 1566); format: functional
HEK293 [20] = test: NOD2 signaling inhibitors in MDP-stimulated cells, cell-based, uHTS, luminescence (AID 2001); format: functional; conditions: Homo sapiens
HEK293 [21] = test: cells; format: functional, cell-based; conditions: Homo sapiens; remark: listed apart in the source
Hexokinase HKDC1 = biological target: T5, Hexokinase HKDC1 (Homo sapiens, UniProt Q2TB90); test: activation of HKDC1 glucose phosphorylation – biochemical, W721R variant, dose response (AID 504730); format: functional
T5 sequence (Q2TB90 whole entry): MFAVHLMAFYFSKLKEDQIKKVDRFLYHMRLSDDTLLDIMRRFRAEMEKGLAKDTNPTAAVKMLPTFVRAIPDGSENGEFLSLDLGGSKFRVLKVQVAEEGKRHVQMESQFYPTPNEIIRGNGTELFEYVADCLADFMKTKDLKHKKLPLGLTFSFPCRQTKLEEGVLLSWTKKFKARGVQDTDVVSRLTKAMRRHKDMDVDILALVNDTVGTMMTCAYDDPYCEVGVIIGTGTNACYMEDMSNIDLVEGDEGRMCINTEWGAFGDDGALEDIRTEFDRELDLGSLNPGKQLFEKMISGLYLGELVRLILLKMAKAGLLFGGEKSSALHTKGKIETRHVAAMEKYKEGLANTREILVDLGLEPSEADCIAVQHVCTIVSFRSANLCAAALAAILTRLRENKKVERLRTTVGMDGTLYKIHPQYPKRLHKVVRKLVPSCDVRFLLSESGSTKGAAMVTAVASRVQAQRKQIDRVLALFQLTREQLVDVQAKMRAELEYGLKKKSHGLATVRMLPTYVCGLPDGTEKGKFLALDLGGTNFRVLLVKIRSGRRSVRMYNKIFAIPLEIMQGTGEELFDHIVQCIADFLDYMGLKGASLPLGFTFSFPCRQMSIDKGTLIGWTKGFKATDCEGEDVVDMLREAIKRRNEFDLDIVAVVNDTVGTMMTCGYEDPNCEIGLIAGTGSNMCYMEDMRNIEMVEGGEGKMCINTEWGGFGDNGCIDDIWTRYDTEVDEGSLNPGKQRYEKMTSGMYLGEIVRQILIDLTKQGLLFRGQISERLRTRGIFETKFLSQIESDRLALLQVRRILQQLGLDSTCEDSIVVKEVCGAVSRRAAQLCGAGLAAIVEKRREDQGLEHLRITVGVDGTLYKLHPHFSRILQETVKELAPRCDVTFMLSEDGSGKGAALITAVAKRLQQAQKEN

Hexokinase-1 = Hexokinase-1 (Homo sapiens, UniProt P19367); test: HK1 enzyme activation by HKDC1 hits – biochemical, selectivity assay for HKDC1 activator project, dose response (AID 504762); format: functional
Chain of Hexokinase-1 (P19367 whole entry): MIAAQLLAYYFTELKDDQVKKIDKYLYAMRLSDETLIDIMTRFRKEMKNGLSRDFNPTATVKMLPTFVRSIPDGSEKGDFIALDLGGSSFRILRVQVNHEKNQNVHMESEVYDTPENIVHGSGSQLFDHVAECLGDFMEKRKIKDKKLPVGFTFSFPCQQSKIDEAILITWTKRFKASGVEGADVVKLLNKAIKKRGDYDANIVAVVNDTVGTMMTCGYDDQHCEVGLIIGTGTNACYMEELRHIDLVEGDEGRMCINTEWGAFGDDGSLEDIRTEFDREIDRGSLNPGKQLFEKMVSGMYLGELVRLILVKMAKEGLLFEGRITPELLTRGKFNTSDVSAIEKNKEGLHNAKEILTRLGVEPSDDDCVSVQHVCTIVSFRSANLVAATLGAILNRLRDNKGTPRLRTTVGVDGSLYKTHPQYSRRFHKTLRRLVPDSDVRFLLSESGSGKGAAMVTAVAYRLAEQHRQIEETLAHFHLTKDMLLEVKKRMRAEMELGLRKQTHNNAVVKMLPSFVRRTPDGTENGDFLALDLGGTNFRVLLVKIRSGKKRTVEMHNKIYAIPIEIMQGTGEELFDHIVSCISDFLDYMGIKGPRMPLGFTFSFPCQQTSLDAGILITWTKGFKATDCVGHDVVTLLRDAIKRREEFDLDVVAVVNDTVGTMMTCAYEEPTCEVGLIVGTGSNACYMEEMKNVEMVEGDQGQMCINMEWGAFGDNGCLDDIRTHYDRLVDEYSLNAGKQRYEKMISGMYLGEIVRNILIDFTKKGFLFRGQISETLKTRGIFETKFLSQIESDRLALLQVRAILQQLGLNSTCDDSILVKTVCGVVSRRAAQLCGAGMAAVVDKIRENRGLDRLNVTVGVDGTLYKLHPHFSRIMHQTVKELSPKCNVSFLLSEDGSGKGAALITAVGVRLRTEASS

Chain of ATP-dependent molecular chaperone HSP82 (C4YTQ8 whole entry): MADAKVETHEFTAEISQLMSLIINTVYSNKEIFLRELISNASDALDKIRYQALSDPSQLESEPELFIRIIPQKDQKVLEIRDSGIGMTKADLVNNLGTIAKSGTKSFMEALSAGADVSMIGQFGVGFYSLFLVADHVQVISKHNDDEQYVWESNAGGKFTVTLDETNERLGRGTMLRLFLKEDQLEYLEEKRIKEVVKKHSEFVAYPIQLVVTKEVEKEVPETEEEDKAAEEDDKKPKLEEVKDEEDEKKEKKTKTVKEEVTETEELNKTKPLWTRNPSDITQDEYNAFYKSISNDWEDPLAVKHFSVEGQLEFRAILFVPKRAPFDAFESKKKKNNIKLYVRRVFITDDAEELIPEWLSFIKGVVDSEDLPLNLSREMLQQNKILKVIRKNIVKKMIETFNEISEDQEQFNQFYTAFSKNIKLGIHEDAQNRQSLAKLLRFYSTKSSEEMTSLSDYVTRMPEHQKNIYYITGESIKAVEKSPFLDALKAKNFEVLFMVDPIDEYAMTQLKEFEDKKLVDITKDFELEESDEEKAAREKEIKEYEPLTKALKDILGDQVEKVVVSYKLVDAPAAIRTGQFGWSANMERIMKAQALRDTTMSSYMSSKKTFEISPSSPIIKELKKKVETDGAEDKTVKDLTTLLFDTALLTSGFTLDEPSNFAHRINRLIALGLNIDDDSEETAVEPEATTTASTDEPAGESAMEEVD
Chain of Nucleotide-binding oligomerization domain-containing protein 2 (Q9HC29 whole entry, the tested form may be a part): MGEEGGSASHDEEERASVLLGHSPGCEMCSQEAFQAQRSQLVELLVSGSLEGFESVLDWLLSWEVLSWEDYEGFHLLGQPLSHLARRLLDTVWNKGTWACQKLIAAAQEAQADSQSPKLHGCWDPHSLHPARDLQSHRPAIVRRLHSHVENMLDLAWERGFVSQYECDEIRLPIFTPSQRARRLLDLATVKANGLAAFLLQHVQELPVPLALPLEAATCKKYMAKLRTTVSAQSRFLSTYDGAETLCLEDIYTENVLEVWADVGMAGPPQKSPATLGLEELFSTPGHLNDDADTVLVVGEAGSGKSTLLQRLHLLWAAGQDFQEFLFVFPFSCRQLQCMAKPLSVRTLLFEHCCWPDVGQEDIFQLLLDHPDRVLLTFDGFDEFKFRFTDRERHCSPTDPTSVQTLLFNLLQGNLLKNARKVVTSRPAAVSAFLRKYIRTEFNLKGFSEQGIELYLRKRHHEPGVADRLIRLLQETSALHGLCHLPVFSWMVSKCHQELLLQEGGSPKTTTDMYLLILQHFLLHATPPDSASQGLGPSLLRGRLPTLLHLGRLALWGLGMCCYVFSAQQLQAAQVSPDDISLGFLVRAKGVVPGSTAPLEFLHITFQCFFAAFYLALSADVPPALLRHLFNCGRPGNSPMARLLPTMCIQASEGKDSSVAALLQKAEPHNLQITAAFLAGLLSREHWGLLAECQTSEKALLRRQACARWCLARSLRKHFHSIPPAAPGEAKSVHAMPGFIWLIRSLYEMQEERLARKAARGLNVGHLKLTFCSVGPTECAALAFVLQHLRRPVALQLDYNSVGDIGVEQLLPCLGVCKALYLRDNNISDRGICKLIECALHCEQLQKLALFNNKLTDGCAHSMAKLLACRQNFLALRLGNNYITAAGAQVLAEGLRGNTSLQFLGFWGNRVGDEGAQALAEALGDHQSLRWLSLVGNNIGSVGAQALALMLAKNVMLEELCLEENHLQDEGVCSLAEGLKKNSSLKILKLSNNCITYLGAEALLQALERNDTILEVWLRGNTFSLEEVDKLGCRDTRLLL

O=C(N/N=C/c1ccccc1O)c1cccc(C(F)(F)F)c1
> 350 µM (not active): EC50 (cells [4])
active: EC50 (cells [2]) 7.53 µM | EC50 [3] 1.39 µM | CC50 [6] 0.106 µM | CC50 [7] 6.7 µM | CC50 [8] 3.65 µM | AC50 (INS1) 1.11 µM
inactive: EC50 [1] > 150 µM | EC50 [5] > 180 µM | EC50 [9] > 150 µM

COc1ccc2c(c1)nc(O)c1sc3ccccc3c12
inactive: IC50 (CHO-K1) > 66.2 µM | IC50 [10] > 49.7 µM | IC50 (Orexin receptor type 2 [14]) > 50 µM
active: IC50 [11] 2.49 µM | IC50 [12] 7.77 µM | IC50 (Orexin receptor type 2 [13]) 5.5 µM

CCCOc1ccc(/C=N/NC(=S)Nc2ccccc2[N+](=O)[O-])c(O)c1
inactive: IC50 (HEK293 [18]) > 20 µM | IC50 (HEK293 [21]) > 20 µM | EC50 (Hexokinase HKDC1) 26.5 µM | EC50 (Hexokinase-1) > 80 µM
active: EC50 (HEK293 [15]) 11.9 µM | IC50 (HEK293 [16]) 1.82 µM | EC50 [17] 11 µM | EC50 [19] 0.78 µM | IC50 (HEK293 [20]) 0.233 µM | AC50 (INS1) 1.28 µM
